# Reference: patent US5492821A, “Stabilized polyacrylic saccharide protein conjugates” (Cargill, Inc., priority 1991, dated 1996)
# Numbered stars: 1 amine (or outer) side, 2 acyl side, 3 side chain; on linkers, the order of the positions; unused ones are H or OH. Peptide text beside a SMILES is read from it. * marks the point of attachment. pNA = O=[N+]([O-])c1ccc(N*)cc1; Suc = O=C(CCC(=O)[*:2])[*:1]
# Columns and labels:
# Format in all cases: biochemical
# Settings in all cases: 0.05M sodium phosphate buffer at pH 8 containing 10% methanol
# [1] = tested on: CPC-trypsin (poly(2-N-methacrylamido-2-deoxy-D-glucose)-trypsin conjugate); assay: Km and kcat of enzyme-polymer conjugate, Table 1
# Protocol: A protein polymer conjugate of poly(2-N-methacrylamido-2-deoxy-D-glucose) and trypsin was prepared by the reductive amination procedure as shown below: [drawing 23] To 20 mL of a 0.05M sodium borate solution at pH 8 was added 148 mg (3×10^-8 mole) of poly(2-N-methacrylamido-2-deoxy-D-glucose) with 30 mg (1.2×10^-6 mole) of trypsin and 10 mg ([…]) of purified sodium cyanoborohydride. The solution was placed in a shaking water bath at 60 oscillations/min at 35° C. for 48 hours. The progress of the reaction was followed by gel filtration chromatography using 0.05M sodium borate as the eluent on Sephacryl S-200 with a flow rate of 1.5 mL/min. Dialysis of the solution using Spectra Por CE 100K MWCO membrane against 2×250 mL of 0.05M sodium borate at pH 8 for 14 hours gave a 42% yield of active stabilized trypsin-polymer conjugate.
# (§1) The yield of the active enzyme was determined by comparison of the relative activity of the native trypsin and the trypsin-polymer conjugate for N-succinyl-Ala-Ala-Pro-Phe p-nitroanilide as the substrate in 0.05M sodium phosphate buffer at pH 8 containing 10% methanol.
# trypsin (native) = assay: Km and kcat of enzyme, Table 1
# Protocol: as §1
# α-chymotrypsin (native) = α-chymotrypsin (native) (Bos taurus, UniProt P00766); assay: Km and kcat of enzyme, Table 1
# Protocol: as §1
# The procedure of EXAMPLE 8 (a) (i) was repeated in every essential detail except that α-chymotrypsin was used instead of trypsin.
smiles,measurement,setting,value
C[C@H](NC(=O)CCC(=O)O)C(=O)N[C@@H](C)C(=O)N1CCC[C@H]1C(=O)N[C@@H](Cc1ccccc1)C(=O)Nc1ccc([N+](=O)[O-])cc1 [N-succinyl-Ala-Ala-Pro-Phe p-nitroanilide] (Suc-AAPF-pNA),Km,[1],890 µM
same,kcat,[1],1.2 s⁻¹
same,Km,trypsin (native),760 µM
same,kcat,trypsin (native),0.9 s⁻¹
same,Km,α-chymotrypsin (native),40 µM
same,kcat,α-chymotrypsin (native),33 s⁻¹
